Measured values reported in patent US20100210835A1, “Mimetic Drug Delivery Systems for Release with Specific Molecular Triggers” (BOARD OF REGENTS, THE UNIVERSITY OF TEXAS SYSTEM, priority 2009, published 2010).

Legend:
Format in all cases: physicochemical
[1] = Release of Nile Blue from MIP polymers in glucose solutions
Description: Loading of Films with Nile Blue For Release Studies. For dye loading, 50 mg of Nile Blue was weighed out and dissolved in 100 ml of distilled water, resulting in a final concentration of 0.5 mg/ml. The mixture was vigorously mixed and sonicated for 5 minutes. In the meantime discs were arranged in a segmented plastic container and the Nile Blue solution gently pipetted onto the discs until they were fully covered. The container was covered and left at room temperature overnight.
The following day the Nile Blue was gently removed by pipettes until the discs were visible. The discs were carefully removed and washed three times with water and then placed in a clean container and covered in water. The container was then placed on a hot plate set to 55° C. and left for three hours. The water was removed and the process repeated. At the end of six hours the discs were removed and placed on a clean foil and dried overnight at room temperature. The following day the discs were ready for study.
Preparation of glucose solutions. Glucose (200 mg) was weighed out and dissolved in 100 ml of water, resulting in a final concentration of 200 mg/dl.
Incubation—Nile Blue. The above solutions of glucose or lactic acid were used as triggers for Nile Blue release. 4 ml of each solution was placed into three petri dishes kept at room temperature. Stained discs were placed into each dish and the dish covered. Samples were taken (400 ul) into micro-cuvettes at specific time points and the concentration of Nile Blue present was determined by measuring the absorbance of the Nile Blue solutions at 625 nm.

[2] = Release of geraniol from MIP polymers in lactic acid solutions; settings: 200 mg/dl lactic acid, 24 hours; FIG. 8
Description: Loading of films with and Active Agent. The active agent geraniol was used for release studies. Once dry, 7 mm discs were carefully cut out using a standard stainless steel cork borer. The discs were lifted out and placed on a clean dish. For the loading, 100 mg of geraniol was weighed out and dissolved in 100 ml of 50% ethanol:distilled water, resulting in a final concentration of 1.0 mg/ml.
The mixture was vigorously mixed and sonicated for 5 minutes. In the meantime discs were arranged in a segmented plastic container and the geraniol solution gently pipetted onto the discs until they were fully covered. The container was tightly covered and left at room temperature overnight. The following day the geraniol solution was gently removed by pipette until the discs were visible. The discs were washed three times with water and placed on a clean foil and left to dry overnight.
Preparation of lactic acid solutions. […]
Incubation Study—Geraniol. […] The stop clock started and samples were taken (100 ul) into HPLC autosampler vials and the concentration of geraniol present was determined by injecting onto a C18 HPLC column and monitoring at a wavelength of 195 nm.
Assay for Geraniol. Geraniol concentration was quantified using an HPLC Diode array detector (DAD) at 195 nm. After blanking with water, samples were injected and the peak area of the geraniol peak recorded. […]

[3] = Loading of films with geraniol; settings: lactic acid-triggered films, 7 mm discs
Description: Loading of films with and Active Agent. The active agent geraniol was used for release studies. Once dry, 7 mm discs were carefully cut out using a standard stainless steel cork borer. The discs were lifted out and placed on a clean dish. For the loading, 100 mg of geraniol was weighed out and dissolved in 100 ml of 50% ethanol:distilled water, resulting in a final concentration of 1.0 mg/ml. The mixture was vigorously mixed and sonicated for 5 minutes. In the meantime discs were arranged in a segmented plastic container and the geraniol solution gently pipetted onto the discs until they were fully covered. The container was tightly covered and left at room temperature overnight. The following day the geraniol solution was gently removed by pipette until the discs were visible. The discs were washed three times with water and placed on a clean foil and left to dry overnight.

release of Nile Blue from MIP films ([1]; films moved at 365 minutes from water to 200 mg/dl glucose, FIG. 5) | release of Nile Blue from MIP films ([1]; films moved at 450 minutes from glucose solution to fresh water, FIG. 6) | release of Nile Blue from MIP films ([1]; in water, about 5 hours) | release of Nile Blue from MIP films ([1]; increasing glucose concentration, FIG. 4) | release of geraniol from MIP films [2] | loading of geraniol in MIP films [3] | SMILES
began almost immediately | stopped almost immediately | not showed any significant release | released in increasing amounts | – | – | CC[N+](CC)=c1ccc2nc3c(cc(N)c4ccccc43)oc-2c1 [Nile Blue]
– | – | – | – | ~100% | approximately 145 μg per disc | CC(C)=CCC/C(C)=C/CO [Geraniol]
